Data from patent US20260055142A1, “PHARMACEUTICAL USE OF POLYPEPTIDE IN PREPARATION OF DRUGS FOR TREATING AND/OR PREVENTING DIABETES AND OBESITY AND RELATED DISEASES THEREOF” (GUANGDONG RAYNOVENT BIOTECH CO., LTD., priority 2022, published 2026).

How the values were obtained:
[1] = molecular target: T1, GLP-1R (Homo sapiens, UniProt P43220); experiment: In vitro GLP-1R agonistic activity test (cAMP kit); type: cell-based; details: HEK293 host cell; without 1% HSA
T1 construct: host or cells: HEK293
T1 sequence (P43220 24-463, species assumed): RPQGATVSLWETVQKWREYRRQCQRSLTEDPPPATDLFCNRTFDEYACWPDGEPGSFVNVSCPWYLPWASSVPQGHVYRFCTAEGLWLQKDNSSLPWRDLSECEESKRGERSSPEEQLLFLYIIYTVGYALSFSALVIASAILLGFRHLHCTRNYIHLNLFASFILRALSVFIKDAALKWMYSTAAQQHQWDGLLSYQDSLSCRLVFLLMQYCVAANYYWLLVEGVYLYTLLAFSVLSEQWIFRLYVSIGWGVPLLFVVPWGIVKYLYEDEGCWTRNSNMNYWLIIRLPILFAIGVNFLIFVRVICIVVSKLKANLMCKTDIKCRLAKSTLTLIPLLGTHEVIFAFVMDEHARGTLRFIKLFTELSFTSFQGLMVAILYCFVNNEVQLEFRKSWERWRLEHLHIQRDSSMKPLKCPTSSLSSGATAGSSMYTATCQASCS
Protocol: The cell lines were constructed by Wuxi […] (Shanghai) Co., Ltd. See details in Table 1 below. [table] The test compounds were diluted at a 4-fold dilution factor in 10 points, starting from an initial concentration of 30 μM. […]

[2] = molecular target: T2, GIPR (Homo sapiens, UniProt P48546); experiment: In vitro GIPR agonistic activity test (cAMP kit); type: cell-based; details: CHO host cell; without 1% HSA
T2 construct: host or cells: CHO
T2 sequence (P48546 22-466): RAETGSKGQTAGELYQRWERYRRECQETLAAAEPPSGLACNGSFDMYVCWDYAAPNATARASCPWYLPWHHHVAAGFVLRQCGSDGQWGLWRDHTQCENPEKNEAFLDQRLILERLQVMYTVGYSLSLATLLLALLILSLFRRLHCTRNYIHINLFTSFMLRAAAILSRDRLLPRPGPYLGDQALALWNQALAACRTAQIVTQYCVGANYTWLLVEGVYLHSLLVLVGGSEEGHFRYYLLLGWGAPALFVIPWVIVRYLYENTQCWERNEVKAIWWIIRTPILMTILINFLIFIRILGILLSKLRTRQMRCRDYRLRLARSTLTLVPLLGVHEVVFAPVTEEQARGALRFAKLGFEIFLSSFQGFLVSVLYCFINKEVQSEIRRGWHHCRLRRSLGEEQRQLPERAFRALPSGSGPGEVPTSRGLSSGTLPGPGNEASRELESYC
Protocol: The cell lines were constructed by Wuxi […] (Shanghai) Co., Ltd. See details in Table 1 below. […] The test compounds were diluted at a 4-fold dilution factor in 10 points, starting from an initial concentration of 30 μM.

[3] = tested on: Db/db (Lepr leptin receptor deficient) mice; experiment: In vivo efficacy test in mouse model of diabetes; details: for Change rate of glycosylated hemoglobin: “−” indicates decrease
Description: To study the efficacy of the series of polypeptides of the present application in animal model of diabetes, and to compare them with the marketed counterpart Tirzepatide as reported in the literature (MOLECULAR METABOLISM, 18 (2018), P3-14). The glucose-lowering effect of Tirzepatide is much better than that of Semaglutide, and thus Semaglutide was not included in this experiment for comparison. Db/db (Lepr leptin receptor deficient) mice have typical clinical symptoms of diabetes such as extreme obesity, hyperphagia, thirst, and polyuria, and they are ideal animal model of type II diabetes. […] The test animals were divided into groups. An appropriate amount of the test samples were added into 20 mM sodium citrate buffer following the experimental protocol, and the mixture was vortexed at room temperature to obtain clear solutions of varying concentrations. The obtained solutions were frozen for further use. During the experiment, animals in the normal control group, the model group and the dosing group were administered by means of subcutaneous injection on the outer thighs. The dosing regimen was once a day (Qd), for a total period of 4 weeks. Details were as follows: [table] […] The fasting blood glucose level and the change rate of glycosylated hemoglobin level in the test mice were dynamically monitored during the experiment.

[4] = tested on: mouse model of obesity; experiment: In vivo efficacy test in mouse model of obesity; details: high-fat diet obese mice, SC Q3d for 22 days; 10 nmol/kg (Semaglutide 30 nmol/kg)
Description: To study the weight-lowering effect of the series of polypeptides of the present application in animal model of obesity, and to compare them with the marketed counterparts, Tirzepatide and Semaglutide. Mouse model of obesity was obtained by induction with high-fat diet following the reference literature (MOLECULAR METABOLISM, 18 (2018), P3-14). The specific experimental procedure was as follows: the experimental mice were fed with high-fat diet (Research Diet D12492) for 13 weeks. […] These findings indicated the successful establishment of animal models. The test animals were divided into groups. An appropriate amount of the test samples were added into 20 mM sodium citrate buffer following the experimental protocol, and the mixture was vortexed at room temperature to obtain clear solutions of varying concentrations. The obtained solutions were frozen for further use. During the experiment, animals in the model group and the dosing group were administered by means of subcutaneous injection on the outer thighs. The dosing regimen was once every 3 days […]), for a total period of 22 days. Details were as follows. [table] […] After completing the entire dosing test cycle, the test mice were weighed, and the results were shown below.

Row | Compound | EC50 [1] | EC50 [2] | Fasting blood glucose ([3]; Day 0, 5 nmol/kg SC Qd) | Fasting blood glucose ([3]; Day 7, 5 nmol/kg SC Qd) | Fasting blood glucose ([3]; Day 14, 5 nmol/kg SC Qd) | Change rate of glycosylated hemoglobin ([3]; Day 14, 5 nmol/kg SC Qd) | Fasting blood glucose ([3]; Day 21, 5 nmol/kg SC Qd) | Change rate of glycosylated hemoglobin ([3]; Day 21, 5 nmol/kg SC Qd) | Change rate of glycosylated hemoglobin ([3]; Day 29, 5 nmol/kg SC Qd) | Weight change rate [4]
1 | CC[C@H](C)[C@H](NC(=O)[C@H](CC(C)C)NC(=O)[C@H](Cc1c[nH]c2ccccc12)NC(=O)[C@H](C)NC(=O)[C@@H](NC(=O)[C@H](Cc1ccccc1)NC(=O)[C@H](C)NC(=O)[C@@H]1CCCCNC(=O)CN(C(=O)COCCOCCNC(=O)COCCOCCNC(=O)CC[C@H](NC(=O)CCCCCCCCCCCCCCCCCCC(=O)O)C(=O)O)CC(=O)NCCCC[C@H](NC(=O)[C@H](CCCCN)NC(=O)[C@H](CC(=O)O)NC(=O)[C@H](CC(C)C)NC(=O)C(C)(C)NC(=O)[C@@H](NC(=O)[C@H](CO)NC(=O)[C@H](Cc2ccc(O)cc2)NC(=O)[C@H](CC(=O)O)NC(=O)[C@H](CO)NC(=O)[C@@H](NC(=O)[C@H](Cc2ccccc2)NC(=O)[C@@H](NC(=O)CNC(=O)[C@H](CCC(=O)O)NC(=O)C(C)(C)NC(=O)[C@@H](N)Cc2ccc(O)cc2)[C@@H](C)O)[C@@H](C)O)[C@@H](C)CC)C(=O)N[C@@H](C)C(=O)N[C@@H](CCC(N)=O)C(=O)N1)C(C)C)C(=O)N[C@@H](C)C(=O)NCC(=O)NCC(=O)N1CCC[C@H]1C(=O)N[C@@H](CO)C(=O)N[C@@H](CO)C(=O)NCC(=O)N[C@@H](C)C(=O)N1CCC[C@H]1C(=O)N1CCC[C@H]1C(=O)N1CCC[C@H]1C(=O)N[C@@H](CO)C(N)=O [WX-007] | 0.026 nM | 0.4 nM | – | – | – | – | – | – | – | –
2 | Tirzepatide | – | – | 26.7 ± 1.4 mmol/L | 11.6 ± 1.4 mmol/L | 12.6 ± 1.6 mmol/L | −15.9 ± 5.4% | 14.0 ± 1.4 mmol/L | −14.3 ± 4.9% | −10.2 ± 5.7% | −10.20%
